Consider 1 compound from patent US20240165023A1, “LIQUID PHARMACEUTICAL COMPOSITION” (Verona Pharma PLC, priority 2022, published 2024).

The subject of data set [1] is patients with moderate to severe COPD. Briefly: Clinical study of nebulised ensifentrine 3 mg BID vs placebo, lung function (FEV1) in COPD. The data set is classed as in vivo, human. Conditions: 3 mg BID by nebuliser. The procedure: A clinical study was conducted to determine the efficacy of ensifentrine in treating COPD compared with placebo. Ensifentrine was administered by nebuliser at a dose of 3 mg twice daily (BID) for 24 weeks. The study was a multi-centre, randomized, double-blind, parallel-group, placebo-controlled trial with around 800 patients and 5:3 randomization.
The study population included patients aged 40-80 years with moderate to severe COPD (FEV1 30%-70% p.n., FEV1/forced vital capacity (FVC) ratio <0.7, with mMRC 2). The randomization stratified (a) the use of stable background maintenance LAMA or LABA therapy use (approx. 50%. yes or no) and (b) cigarette smoking (current or former). Inhaled corticosteroid (ICS) maintenance therapy was permitted in up to 20% of patients under certain provisions.
The primary endpoint of the study was change from baseline in average FEV1 area under the curve (AUC)0-12 h post-dose at week 12. Secondary endpoints of the study included: peak FEV1 over 4 hours post-dose at Week 12; morning trough FEV1 at Week 12; and other endpoints including moderate/severe COPD exacerbations frequency over 24 Weeks.
Baseline FEV1 is the mean of the two measurements taken before study medication on the day of first dosing, i.e. <40 minutes and just prior to dosing, both pre-dose on day 1.
Average FEV1 AUC0-12 h is defined as area under the curve over 12 hours of the FEV1, divided by 12 hours.
The investigational product and placebo were provided in 2.5 mL unit dose format in an ampule and administered via a nebuliser. The formulation of the investigational product (ensifentrine suspension formulation comprising crystalline polymorph Form I of ensifentrine) and placebo are shown in Table 1 below.

A short description of data set [2]: Plasma pharmacokinetics of ensifentrine in COPD patients, popPK model simulation from trial samples. The data set is classed as in vivo, human. Here is the method: Plasma concentrations of ensifentrine for the assessment of pharmacokinetic (PK) parameters were measured using validated bioanalytical methods for ensifentrine in human plasma with LLOQ of 5 pg/mL.
Samples were taken on the following schedule: • Week 6: 1.0 h (±0.5 h) and 2.5 h (±0.5 h) (even sites) or 1.5 h and 4 h (±1 h) (odd sites); • Week 12: pre-dose (−0.5 h), 4 to 6 h, and 8 to 12 h (even sites) or 0.5 h (±0.25 h), 3 h (±0.5 h), and 6 to 8 h (odd sites); • Week 24: pre-dose (−0.5 h) and 1.5 h (even sites) or pre-dose (−0.5 h) and 1 h (±0.5 h) (odd sites)
Based on the samples taken during the trial, PK data was modelled for COPD patients with normal renal function. The final popPK model was used to predict parameter estimates in a virtual population of 50000 subjects (per covariate condition) for simulation of ensifentrine PK following nebulization of 3 mg in a population reflecting the population in the trial with normal renal function or mild renal impairment, or with moderate renal impairment. Uncertainty in fixed effects and covariance matrix parameters as well as residual variability were included in the simulations. The parameter uncertainty was accounted for by random resampling (without replacement) of 500 sets of parameter estimates from the bootstrap (750 replicates) in R to create 500 NONMEM simulation control streams. From each set of parameter estimates, the PK profiles for 100 subjects (for each covariate condition) were simulated with IV and IOV from the covariance matrix and residual error in NONMEM. Individual subject concentrations were simulated using NONMEM version 7.4.3, and PK parameters were calculated using R version 3.4.0.

Data set [3] can be described thus: Plasma pharmacokinetics of ensifentrine after administration of the composition to healthy patients. The data set is classed as in vivo. The following applies: human, inhaled.
[4] abbreviates: human, plasma, inhaled, 3 mg, patients with COPD.
[5] abbreviates: nebulization of 3 mg, COPD patients with normal renal function, popPK simulation in virtual population.

Take `COc1cc2c(cc1OC)-c1c/c(=N\c3c(C)cc(C)cc3C)n(CCNC(N)=O)c(=O)n1CC2` [Ensifentrine, N-(2-{(2E)-9,10-dimethoxy-4-oxo-2-[(2,4,6-trimethylphenyl)imino]-6,7-dihydro-2H-pyrimido[6,1-a]isoquinolin-3(4H)-yl}ethyl)urea]: the “primary endpoint of average FEV1 (AUC)0-12 h at Week 12” value in data set [1] (Week 12) is on record as “met”. Besides, the “Average FEV1 (AUC)0-12 h post-dose at Week 12: Change from Baseline (CFB) Least Squares Mean” value in data set [1] (Week 12, n = 498, COPD patients) is 48.2 mL. In data set [1] (Week 12, vs placebo (n = 291)), the “Average FEV1 (AUC)0-12 h post-dose at Week 12: Placebo-corrected CFB LS Mean Diff.” value turned out to be 93.9 mL. The “improvement in lung function in subgroups of COPD patients” value in data set [1] (all subgroups) was “improvement in lung function with ensifentrine that was statistically significant”. Further, in data set [2] (COPD patients vs healthy patients), the “systemic exposure in COPD patients compared with healthy patients” value was “lower systemic exposure”. Also, in data set [2] (setting [4]), the area under the curve (AUC) (usually the area under the concentration-time curve, a measure of exposure) is 2.45 ng·h/mL and the Cmax (in general, the highest concentration seen after dosing) is 0.522 ng/mL. In data set [2] (setting [5]), the “AUC0-tau, Median (90% prediction interval)” value is recorded as 2450 (882-7500) pg/mL * h; the “Cmax, Median (90% prediction interval)” value is listed as 522 (173-1330) pg/mL; the “tmax, Median” value is 1.0 h. In data set [3], this compound gave a maximum concentration (Cmax) of 0.852 ng/mL. In data set [3] (read-out: mean AUC0-∞), the AUC(0-inf) turned out to be 5.93 ng·h/mL.
